“And” between values parts separate entries of the source, which are not always exact repeats. Equal entries are not always repeated. Where two headings read alike, the source gives them in different places. Marks after values point to notes of the source that are not given here.
Tests used:
[1] = biological target: T1, recombinant mouse NAPE-PLD (Mus musculus, UniProt Q8BH82); assay: In vitro fluorescence NAPE-PLD activity assay (HTS/CRC) with recombinant mouse NAPE-PLD and PED-A1; assay type: biochemical; conditions: for AC50 (nM) / Max % bA (%) / AC50: Table 1; for AC50 (nM) / AC50: concentration for 50% maximum activation from basal activity (no activator); for Max % bA (%): maximum induced activity compared to basal (100%) activity; for Emax (95% Cl): Table 4, maximal efficacy as fold increase in NAPE-PLD activity versus vehicle only
T1 construct: hexahistidine (His6) (C); made in house; host or cells: E. coli
T1 sequence (Q8BH82 1-396): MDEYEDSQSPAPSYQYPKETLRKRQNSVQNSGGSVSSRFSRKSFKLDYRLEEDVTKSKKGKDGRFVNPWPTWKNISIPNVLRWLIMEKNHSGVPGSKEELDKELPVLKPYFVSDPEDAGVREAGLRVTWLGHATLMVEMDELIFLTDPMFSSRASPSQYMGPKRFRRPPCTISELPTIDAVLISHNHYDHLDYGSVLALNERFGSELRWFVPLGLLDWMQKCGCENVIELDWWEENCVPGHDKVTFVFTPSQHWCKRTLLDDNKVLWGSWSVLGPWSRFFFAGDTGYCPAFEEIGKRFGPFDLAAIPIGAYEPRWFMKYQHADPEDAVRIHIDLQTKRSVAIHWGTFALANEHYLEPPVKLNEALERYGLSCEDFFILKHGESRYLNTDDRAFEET
Protocol: Using the fluorogenic NAPE substrate, PED-A1, and recombinant mouse NAPE-PLD (rNAPE-PLD), an in vitro high-throughput (HTS) assay was conducted to screen ˜40,000 compounds for their ability to modulate NAPE-PLD activity. The HTS assay enabled the detection of both NAPE-PLD activators and inhibitors. […] Initial structure-activity response studies with the top hits identified benzothiazole phenylsulfonyl-piperidine carboxamide analogs (BT-PSP analogs) as lead compounds for NAPE-PLD activators (Table 1). The lead BT-PSP analog identified, VU534, induces 50% of its activation effect on NAPE-PLD at 270 nM (AC50 270 nM), and induces a maximal effect of 195% of basal NAPE-PLD activity (Table 1).
In vitro fluorescence NAPE-PLD activity assays using recombinant NAPE-PLD and either PED-A1 or flame-NAPE as fluorogenic substrate were performed as previously described except with small modifications as noted below. See Aggarwal et al., J. Biol. Chem. 295(21): 7289-7300 (2020); Zarrow et al., J. Lipid Res. 63(1): 100156 (2022).
For the HTS assays, test compounds were incubated with recombinant enzyme for 1 h prior to adding PED-A1 (final 0.4 μM) mixed with N-palmitoyl-dioleoyl-PE (final 3.6 μM) to adjust for the high sensitivity of the Panoptic instrument (WaveFront Biosciences). Assays used black-wall, clear-bottom, non-sterile, and non-treated 384-well plates (Greiner Bio-One 781906). The assay was read in kinetic fluorescence mode on the Panoptic instrument for 4 min and the slope of the signal from 30-100 s was used for analysis. A total of 39,328 compounds from the Vanderbilt Discovery Collection were tested, each at 10 μM. The tested compounds were chosen to represent a structurally diverse selection from the full library. Each 384-well plate included 320 test compound wells and 64 control wells. Unlike previous pilot screening assays, bithionol (10 μM final) was used in place of lithocholic acid (100 μM final) as the inhibitor control. Before performing high-throughput screening, a checkerboard assay was performed to validate the assay parameters. This yielded a Z′ score of 0.676. Z′ scores were also calculated for each plate during screening, and plates with scores <0.5 were re-run. The average Z′ across all screening plates was 0.52, and the total hit rate was 3.6%. B-scores were calculated from the initial slopes across each plate using WaveGuide software (WaveFront Biosiences). Modulator hits were defined as compounds with absolute B-scores of 3 or higher. The number of compounds in various B-score ranges were as follows: […], 12 compounds; −10 to −5, 221 compounds; −5 to −3, 770 compounds; −3 to 3, 37924 compounds; 3 to 4, 314 compounds; 4 to 6, 70 compounds; 6 to 10, 15 compounds. Activator hits with B-scores of >3 were selected for the replication assay and a selection of analogs of the activators.
Concentration response curve (CRC) experiments used the same assay conditions as the HTS assay, except that graded concentrations of each test compound were used, with total amount of vehicle (DMSO) kept constant. CRC experiments with purified recombinant mouse NAPE-PLD were performed on two separate days, with values from each day normalized to vehicle only controls on same plate, and then all normalized values from both days averaged together. CRC experiments with human NAPE-PLD represent value from only a single day, due to limited amounts of this recombinant enzyme.

[2] = biological target: T2, Fatty Acid Amide Hydrolase (FAAH) (Homo sapiens, UniProt O00519); assay: FAAH activity assay (Cayman Chemicals); assay type: biochemical
T2 construct: purchased Cayman Chemicals
T2 sequence (O00519 1-579): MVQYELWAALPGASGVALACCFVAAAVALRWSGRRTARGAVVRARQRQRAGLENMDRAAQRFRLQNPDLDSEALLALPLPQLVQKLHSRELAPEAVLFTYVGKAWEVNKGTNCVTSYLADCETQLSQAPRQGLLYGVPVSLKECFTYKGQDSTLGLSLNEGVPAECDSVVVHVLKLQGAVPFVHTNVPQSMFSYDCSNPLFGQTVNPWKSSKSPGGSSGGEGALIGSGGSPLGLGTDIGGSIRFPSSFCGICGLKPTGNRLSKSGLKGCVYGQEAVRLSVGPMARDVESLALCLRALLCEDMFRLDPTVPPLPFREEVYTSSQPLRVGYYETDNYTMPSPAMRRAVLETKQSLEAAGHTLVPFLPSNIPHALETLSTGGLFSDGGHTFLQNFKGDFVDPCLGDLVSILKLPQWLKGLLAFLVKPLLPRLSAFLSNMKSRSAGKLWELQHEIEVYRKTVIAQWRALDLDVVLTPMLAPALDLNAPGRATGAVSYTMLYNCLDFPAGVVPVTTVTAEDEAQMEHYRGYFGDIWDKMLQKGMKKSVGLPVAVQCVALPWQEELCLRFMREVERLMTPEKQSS
Protocol: (§1) Concentration response curves were plotted for VU534 for the enzymes fatty acid amide hydrolase (FAAH) and soluble epoxide hydrolase (sEH).
(§2) The fluorescence interference assay was performed using the same method as the HTS assay, but with BODIPY-FL C5 (Thermo Fisher Scientific) used in place of PED-A1. sEH and FAAH activity assays were performed according to the manufacturer's specifications (Cayman Chemicals).

[3] = biological target: T3, soluble epoxide hydrolase (sEH) (Homo sapiens, UniProt P34913); assay: sEH activity assay (Cayman Chemicals); assay type: biochemical; conditions: 33 μM compound, compared to vehicle (0%)
T3 construct: purchased Cayman Chemicals
T3 sequence (P34913 1-555): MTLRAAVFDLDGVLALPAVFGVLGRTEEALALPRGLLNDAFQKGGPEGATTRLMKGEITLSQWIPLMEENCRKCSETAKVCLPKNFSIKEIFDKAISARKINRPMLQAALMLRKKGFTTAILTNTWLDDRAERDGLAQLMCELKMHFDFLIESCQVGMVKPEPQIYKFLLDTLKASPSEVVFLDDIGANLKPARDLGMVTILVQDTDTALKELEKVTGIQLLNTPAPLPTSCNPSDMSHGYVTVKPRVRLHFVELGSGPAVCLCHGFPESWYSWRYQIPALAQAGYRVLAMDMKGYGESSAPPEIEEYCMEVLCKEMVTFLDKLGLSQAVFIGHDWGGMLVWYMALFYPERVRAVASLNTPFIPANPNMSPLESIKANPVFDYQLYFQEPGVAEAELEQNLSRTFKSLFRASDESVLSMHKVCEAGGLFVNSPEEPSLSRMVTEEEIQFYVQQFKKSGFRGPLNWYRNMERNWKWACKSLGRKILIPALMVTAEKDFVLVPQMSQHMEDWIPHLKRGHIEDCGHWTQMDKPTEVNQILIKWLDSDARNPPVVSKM
Protocol: as §1, §2

[4] = test system: RAW264.7 mouse macrophages; assay: Cytotoxicity (MTT) in RAW264.7 macrophages; assay type: cell-based
Protocol: (§3) Cytotoxicity was measured using MTT as previously described except that the studies used 96-well plates with 100 μL of 0.3 mg/mL MTT solution was added after 24 h of treatment and then replaced after 3 h with 0.1 M HCl in isopropanol. See Aggarwal et al., J. Biol. Chem. 295(21): 7289-7300 (2020). Viability was expressed as percent absorbance at 560 nm relative to vehicle controls.

[5] = biological target: T4, NAPE-PLD activity of HepG2 cells (Homo sapiens, UniProt Q6IQ20); assay: Cell-based NAPE-PLD activity in HepG2 cells (flame-NAPE); conditions: Table 3; 10 μM
T4 construct: endogenous in cells; host or cells: HepG2
T4 sequence (Q6IQ20 whole entry): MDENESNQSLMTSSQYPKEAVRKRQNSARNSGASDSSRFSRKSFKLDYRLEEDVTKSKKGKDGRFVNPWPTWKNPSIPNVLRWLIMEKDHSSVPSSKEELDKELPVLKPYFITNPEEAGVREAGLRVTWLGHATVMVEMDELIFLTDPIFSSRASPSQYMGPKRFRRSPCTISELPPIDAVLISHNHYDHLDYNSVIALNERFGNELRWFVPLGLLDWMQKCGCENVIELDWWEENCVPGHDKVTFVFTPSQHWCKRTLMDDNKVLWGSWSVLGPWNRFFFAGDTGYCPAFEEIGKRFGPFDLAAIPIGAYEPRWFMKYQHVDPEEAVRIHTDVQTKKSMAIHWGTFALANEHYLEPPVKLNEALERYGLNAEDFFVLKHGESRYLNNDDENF
Protocol: In vitro models of the hepatic steatosis of non-alcoholic fatty liver disease (NAFLD) are well-established, with the primary method being incubation of primary human hepatocytes or hepatocyte cell lines such as HepG2, HuH7, HepaRG, with oleic acid and palmitic acid for 24 to 48 h, then measuring the resulting steatosis, lipid peroxidation, apoptosis, and inflammatory gene expression. Using flame-NAPE to measure NAPE-PLD activity in the human hepatoma HepG2 cell line, the experimental data confirmed that VU534 activated NAPE-PLD in human cells (AC50 940 nM; max % bA 155%). Bithionol (10 μM) reduced HepG2 flame-NAPE hydrolysis by >67%.
NAPE-PLD activity was measured in cells as previously described, except that FluoroBrite DMEM (Gibco A1896701) was used as media. See Zarrow et al., J. Lipid Res. 63(1): 100156 (2022). For RAW264.7 assays, PED-A1 (3.6 μM final) was used as the substrate with 10 μM orlistat added to inhibit PLA1 activity, while for HepG2 cells, flame-NAPE was used (with no orlistat added).

[6] = test system: HepG2 human hepatocytoma cells; assay: Cytotoxicity (MTT) in HepG2 cells; assay type: cell-based; conditions: Table 3; 33 μM
Protocol: as §3

[7] = Table 2, maximal induced activity for recombinant NAPE-PLD compared to basal (100%), read-out: Emax (%)
[8] = Table 2, rNAPE-PLD activity assay
[9] = Table 3, read-out: In vitro EC50
[10] = Table 3, read-out: In vitro Emax (100% activity is baseline activity of vehicle only)
[11] = Table 2, rNAPE-PLD activity assay, read-out: EC50

| SMILES | Max % bA (%) [1] | Emax [1, 7] | EC50 [1, 9] | Emax [1, 10] | Emax (95% Cl) [1] | further results |
| --- | --- | --- | --- | --- | --- | --- |
| Cc1cccc2sc(NC(=O)C3CCN(S(=O)(=O)c4ccc(F)cc4)CC3)nc12 [VU231] | <120% | < 120% | 1.1 µM | 168% | 2.0^d fold | AC50 (nM) [1]: Not active; EC50 (μM) [1, 8]: Inactive |
| Cc1ccc2nc(NC(=O)C3CCN(S(=O)(=O)c4ccc(Cl)cc4)CC3)sc2c1 [VU539] | 170% | 170% | 2.4 µM | 167% | 1.7 (1.6-1.8) fold | AC50 [1]: 2.38 µM; EC50 [1, 11]: 2.38 µM |
| COc1ccc(S(=O)(=O)N2CCC(C(=O)Nc3nc4ccc(C)cc4s3)CC2)cc1 [VU601] |  |  | ~1 µM | 171% | 1.8 (1.8-1.9) fold |  |
| COc1ccc2nc(NC(=O)C3CCN(S(=O)(=O)c4ccc(F)cc4)CC3)sc2c1 [VU484] |  |  | 2.6 µM | 162% | 2.1 (2.0-2.2) fold |  |
| COc1ccc(S(=O)(=O)N2CCC(C(=O)Nc3nc4c(C)cccc4s3)CC2)cc1 [VU605] | 170% | < 120% | ~0.2 µM | ~119% | 2.1 (2.0-2.2) fold | AC50 [1]: 1.04 µM; EC50 (μM) [1, 8]: Inactive |
| Cc1cc(F)ccc1S(=O)(=O)N1CCC(C(=O)Nc2nc3c(C)cccc3s2)CC1 [MRJ-058A] |  | 150% |  |  |  | EC50 [1, 11]: 2.9 µM; inhibition at 33 µM ([2]; 33 μM compound, compared to vehicle (0%)): 20%; inhibition at 33 µM [3]: 85%; 33 μM Mϕ % Viability ([4]; Table 2, Mϕ, 33 μM compound): 55% |
| O=C(Nc1nc2ccccc2s1)C1CCN(S(=O)(=O)c2ccc(Cl)cc2)CC1 [VU541] |  |  | 3.3 µM | 153% |  |  |
| Cc1cccc2sc(NC(=O)C3CCN(S(=O)(=O)c4ccc(Cl)cc4)CC3)nc12 [VU542] | <120% | < 120% | 1.1 µM | 183% | 1.9 (1.9-2.0) fold | AC50 (nM) [1]: Not active; EC50 (μM) [1, 8]: Inactive |
| COc1cccc2sc(NC(=O)C3CCN(S(=O)(=O)c4ccc(F)cc4)CC3)nc12 [VU485] |  |  | 29 µM | 232% | 2.0 (1.8-4.0) fold |  |
| Cc1cc(F)ccc1S(=O)(=O)N1CCC(C(=O)Nc2nc3ccccc3s2)CC1 [VU205] |  |  |  |  | <1.2 fold |  |
| O=C(Nc1nc2ccccc2s1)C1CCN(S(=O)(=O)c2ccc(F)cc2)CC1 [VU488] |  | 135% | 0.39 µM | 136% | 1.7 (1.6-1.8) fold | EC50 [1, 11]: 0.39 µM |
| Cc1cc(F)ccc1S(=O)(=O)N1CCC(C(=O)Nc2nc3c(C)cccc3s2)CC1 [VU212] |  |  | ~2.9 µM | ~151% | 1.6 (1.5-1.6) fold | In-cell NAPE-PLD activity in HepG2 (10 μM) with PED-A1 or flame-NAPE as substrate [5]: 197% and 268%; Remaining FAAH Activity (33 μM) ([2]; Table 3, 33 μM): 61% and 79%; % viability RAW 264.7 (33 μM) ([4]; Table 3, 33 μM): 32% and 56%; % HepG2 viability (33 μM) [6]: 66% and 69% |
| Cc1ccc(S(=O)(=O)N2CCC(C(=O)Nc3nc4ccc(Cl)cc4s3)CC2)cc1 [VU572] |  |  |  | ~349% |  |  |

Source: patent US20250250265A1, “BENZOTHIAZOLE-PHENYLSULFONYL-PIPERIDINE ANALOGS AS ACTIVATORS OF NACYLPHOSPHATIDYLETHANOLAMINE HYDROLYZING PHOSPHOLIPASE D” (priority 2022, published 2025)
